Source: patent US20230141603A1, “BENZODIAZEPINE DERIVATIVES AS GABA A GAMMA1 PAM” (Hoffmann-La Roche Inc., priority 2021, published 2023)

These compounds were tested against T1, h-GABAA α5β2γ1 (Homo sapiens, UniProt P31644+Q8N1C3) (assay: Radioligand binding assay, [3H]RO7239181 competition, HEK293F membranes).
T1 construct: expressed in transfected cells; host or cells: HEK293F cells (ThermoFisher R79007), membranes
T1 sequence (P31644 32-462): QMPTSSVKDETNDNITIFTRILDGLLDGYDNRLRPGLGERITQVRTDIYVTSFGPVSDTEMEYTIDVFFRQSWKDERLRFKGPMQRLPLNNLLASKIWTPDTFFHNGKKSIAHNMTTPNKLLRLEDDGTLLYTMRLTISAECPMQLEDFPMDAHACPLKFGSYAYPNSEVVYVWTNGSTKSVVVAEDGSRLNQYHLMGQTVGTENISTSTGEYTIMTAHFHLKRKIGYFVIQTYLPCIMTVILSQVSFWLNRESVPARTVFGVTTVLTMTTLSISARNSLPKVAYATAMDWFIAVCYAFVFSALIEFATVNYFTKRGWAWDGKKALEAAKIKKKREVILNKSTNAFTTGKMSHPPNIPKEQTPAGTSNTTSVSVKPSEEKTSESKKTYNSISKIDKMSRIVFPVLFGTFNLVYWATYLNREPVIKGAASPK
T1 sequence (P47870 25-512 partner limits assumed): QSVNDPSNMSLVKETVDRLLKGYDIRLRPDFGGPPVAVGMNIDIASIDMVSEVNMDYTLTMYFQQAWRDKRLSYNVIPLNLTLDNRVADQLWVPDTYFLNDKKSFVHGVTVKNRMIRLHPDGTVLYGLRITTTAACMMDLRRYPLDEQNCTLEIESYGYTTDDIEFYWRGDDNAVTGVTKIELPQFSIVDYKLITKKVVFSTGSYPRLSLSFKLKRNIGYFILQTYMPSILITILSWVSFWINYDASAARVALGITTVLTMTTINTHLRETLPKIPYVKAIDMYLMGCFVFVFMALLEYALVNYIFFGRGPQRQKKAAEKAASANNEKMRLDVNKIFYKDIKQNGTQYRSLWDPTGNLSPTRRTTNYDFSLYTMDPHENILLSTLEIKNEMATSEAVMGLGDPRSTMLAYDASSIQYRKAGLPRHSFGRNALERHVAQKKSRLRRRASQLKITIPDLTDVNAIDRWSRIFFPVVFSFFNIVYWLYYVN
T1 sequence (Q8N1C3 36-465): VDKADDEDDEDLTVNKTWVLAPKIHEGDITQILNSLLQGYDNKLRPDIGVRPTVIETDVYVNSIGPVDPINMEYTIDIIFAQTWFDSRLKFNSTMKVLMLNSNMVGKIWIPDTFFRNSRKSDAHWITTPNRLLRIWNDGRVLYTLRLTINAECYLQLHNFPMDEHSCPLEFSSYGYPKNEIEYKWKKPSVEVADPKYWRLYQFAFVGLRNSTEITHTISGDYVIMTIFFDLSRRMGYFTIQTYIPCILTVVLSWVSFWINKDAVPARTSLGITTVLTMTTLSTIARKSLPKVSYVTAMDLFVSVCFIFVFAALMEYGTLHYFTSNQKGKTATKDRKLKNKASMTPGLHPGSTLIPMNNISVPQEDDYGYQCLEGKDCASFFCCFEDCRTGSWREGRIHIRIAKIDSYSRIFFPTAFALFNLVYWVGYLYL
How it was run: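 Competition for [3H]RO7239181 (1.5 nM) binding to membranes from HEK293F cells transiently expressing human α5β2γ1 receptors. Compounds tested at 0.3–10000 nM; nonspecific binding defined with 10 μM RO7235136. Incubation 1 h at 4 °C in 10 mM KPi/100 mM KCl, pH 7.4; filtration, scintillation counting; Ki as mean of two determinations.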
COc1ccc2c(c1Cl)C(c1c(F)cccc1F)=NCc1nnc(-c3ccncn3)n1-2 [Example 61, 7-chloro-6-(2,6-difluorophenyl)-8-methoxy-1-pyrimidin-4-yl-4H-[1,2,4]triazolo[4,3-a][1,4]benzodiazepine] gave a Ki of 4.2 nM.
In the case of COc1ccc2c(c1Cl)C(c1c(F)cccc1F)=NCc1nnc(-c3cccnc3)n1-2 [Example 62, 7-chloro-6-(2,6-difluorophenyl)-8-methoxy-1-(3-pyridyl)-4H-[1,2,4]triazolo[4,3-a][1,4]benzodiazepine], the Ki is reported as 4 nM.
Fc1cccnc1C1=NCc2nnc(C3CC3)n2-c2ccc(Cl)c(Cl)c21 [Example 65, 7,8-dichloro-1-cyclopropyl-6-(3-fluoro-2-pyridyl)-4H-[1,2,4]triazolo[4,3-a][1,4]benzodiazepine] showed a Ki of 7.8 nM.
For Fc1cccnc1C1=NCc2nnc(-c3ccncn3)n2-c2ccc(C(F)(F)F)c(Cl)c21 [Example 69, 7-chloro-6-(3-fluoro-2-pyridyl)-1-pyrimidin-4-yl-8-(trifluoromethyl)-4H-[1,2,4]triazolo[4,3-a][1,4]benzodiazepine], the Ki was 7.1 nM.
In the case of Cn1cc(-c2nnc3n2-c2ccc(C(F)(F)F)c(Cl)c2C(c2ncccc2F)=NC3)cn1 [Example 70, 7-chloro-6-(3-fluoro-2-pyridyl)-1-(1-methylpyrazol-4-yl)-8-(trifluoromethyl)-4H-[1,2,4]triazolo[4,3-a][1,4]benzodiazepine], the Ki is reported as 6.8 nM.
With Cc1nnc2n1-c1ccc(Cl)c(Cl)c1C(c1ncccc1F)=NC2 [Example 71, 7,8-dichloro-6-(3-fluoro-2-pyridyl)-1-methyl-4H-[1,2,4]triazolo[4,3-a][1,4]benzodiazepine] the Ki was 5.7 nM.
With Fc1cccnc1C1=NCc2nnc(-c3cccnn3)n2-c2ccc(C(F)(F)F)c(Cl)c21 [Example 72, 7-chloro-6-(3-fluoro-2-pyridyl)-1-pyridazin-3-yl-8-(trifluoromethyl)-4H-[1,2,4]triazolo[4,3-a][1,4]benzodiazepine] the Ki was 5.4 nM.
For Fc1cccnc1C1=NCc2nnc(C3CC3)n2-c2ccc(Br)c(Cl)c21 [Example 77, 8-bromo-7-chloro-1-cyclopropyl-6-(3-fluoro-2-pyridyl)-4H-[1,2,4]triazolo[4,3-a][1,4]benzodiazepine], the Ki was 2.8 nM.
In the case of Cc1nnc2n1-c1ccc(C(F)(F)F)c(Cl)c1C(c1ncccc1F)=NC2 [Example 78, 7-chloro-6-(3-fluoro-2-pyridyl)-1-methyl-8-(trifluoromethyl)-4H-[1,2,4]triazolo[4,3-a][1,4]benzodiazepine], the Ki is reported as 7.8 nM.
Work on COc1ccc2c(c1Cl)C(c1c(F)cccc1F)=NCc1nnc(C3CC3)n1-2 [Example 79, 7-chloro-1-cyclopropyl-6-(2,6-difluorophenyl)-8-methoxy-4H-[1,2,4]triazolo[4,3-a][1,4]benzodiazepine] yielded a Ki of 6.8 nM.
COc1nnc2n1-c1ccc(Cl)c(Cl)c1C(c1c(F)cccc1F)=NC2 [Example 90, 7,8-dichloro-6-(2,6-difluorophenyl)-1-methoxy-4H-[1,2,4]triazolo[4,3-a][1,4]benzodiazepine] gave a Ki of 1 nM.
Compound CO[C@H]1C[C@H](c2nnc3n2-c2ccc(Cl)c(Cl)c2C(c2c(F)cccc2F)=NC3)C1 [Example 91, trans-7,8-dichloro-6-(2,6-difluorophenyl)-1-(3-methoxycyclobutyl)-4H-[1,2,4]triazolo[4,3-a][1,4]benzodiazepine] has a Ki of 3.1 nM.
Compound Fc1cccc(F)c1C1=NCc2nnc(-c3cccnn3)n2-c2ccc(Br)c(Cl)c21 [Example 104, 8-bromo-7-chloro-6-(2,6-difluorophenyl)-1-pyridazin-3-yl-4H-[1,2,4]triazolo[4,3-a][1,4]benzodiazepine] has a Ki of 0.6 nM.
